As a reminder, the ΔTm is the change in melting temperature against a reference sample.

In publication PMC12621043, “Un-LOK-ing a New Approach for Conformational Selective Targeting of STK10 (LOK)” (ACS Medicinal Chemistry Letters, 2025) one finds ΔTm data, which are given here for 18 compounds.

What all share (test): DSF Tm panel
Type in all cases: binding
Common to all, as to details: 10 μM compound

The target in one assay is T1, PHKG2A (Homo sapiens, UniProt P15735).
T1 construct: purchased in-house DSF kinase panel (SGC-style construct names; the trailing letter is the construct ID)
T1 sequence (P15735 6-293): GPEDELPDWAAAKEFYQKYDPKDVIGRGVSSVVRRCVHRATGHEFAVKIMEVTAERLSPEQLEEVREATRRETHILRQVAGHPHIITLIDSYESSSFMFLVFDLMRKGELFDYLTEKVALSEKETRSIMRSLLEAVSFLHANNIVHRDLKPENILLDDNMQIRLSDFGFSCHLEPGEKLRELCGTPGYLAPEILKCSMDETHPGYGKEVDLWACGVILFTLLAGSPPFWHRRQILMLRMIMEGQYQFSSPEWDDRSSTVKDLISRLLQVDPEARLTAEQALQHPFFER

The next assay concerns the target T2, RIOK1A (Homo sapiens, UniProt Q9BRS2).
T2 construct: purchased in-house DSF kinase panel (SGC-style construct names; the trailing letter is the construct ID)
T2 sequence (Q9BRS2 143-494): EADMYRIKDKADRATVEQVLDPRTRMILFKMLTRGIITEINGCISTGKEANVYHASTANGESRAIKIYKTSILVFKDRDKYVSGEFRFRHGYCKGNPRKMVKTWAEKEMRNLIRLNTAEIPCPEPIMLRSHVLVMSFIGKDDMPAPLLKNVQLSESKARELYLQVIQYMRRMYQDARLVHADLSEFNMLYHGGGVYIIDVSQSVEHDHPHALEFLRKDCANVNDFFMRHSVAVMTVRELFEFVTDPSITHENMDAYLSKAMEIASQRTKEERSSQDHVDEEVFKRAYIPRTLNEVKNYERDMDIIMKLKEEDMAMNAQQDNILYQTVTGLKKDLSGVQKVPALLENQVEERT

For a further assay, the target named is T3, MAP2K7A (Homo sapiens, UniProt O14733).
T3 construct: purchased in-house DSF kinase panel (SGC-style construct names; the trailing letter is the construct ID)
T3 sequence (O14733 120-400): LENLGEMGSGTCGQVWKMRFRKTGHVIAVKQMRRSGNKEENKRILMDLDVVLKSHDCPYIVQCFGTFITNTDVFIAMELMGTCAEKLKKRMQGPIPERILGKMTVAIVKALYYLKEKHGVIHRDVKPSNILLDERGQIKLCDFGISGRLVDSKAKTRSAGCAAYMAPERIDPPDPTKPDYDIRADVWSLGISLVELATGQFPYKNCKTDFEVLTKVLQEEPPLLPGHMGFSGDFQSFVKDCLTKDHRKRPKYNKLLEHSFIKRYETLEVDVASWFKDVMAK

A further assay has as its target T4, TIF1A (Homo sapiens, UniProt O15164).
T4 construct: purchased in-house DSF kinase panel (SGC-style construct names; the trailing letter is the construct ID)
T4 sequence (O15164 1-1050): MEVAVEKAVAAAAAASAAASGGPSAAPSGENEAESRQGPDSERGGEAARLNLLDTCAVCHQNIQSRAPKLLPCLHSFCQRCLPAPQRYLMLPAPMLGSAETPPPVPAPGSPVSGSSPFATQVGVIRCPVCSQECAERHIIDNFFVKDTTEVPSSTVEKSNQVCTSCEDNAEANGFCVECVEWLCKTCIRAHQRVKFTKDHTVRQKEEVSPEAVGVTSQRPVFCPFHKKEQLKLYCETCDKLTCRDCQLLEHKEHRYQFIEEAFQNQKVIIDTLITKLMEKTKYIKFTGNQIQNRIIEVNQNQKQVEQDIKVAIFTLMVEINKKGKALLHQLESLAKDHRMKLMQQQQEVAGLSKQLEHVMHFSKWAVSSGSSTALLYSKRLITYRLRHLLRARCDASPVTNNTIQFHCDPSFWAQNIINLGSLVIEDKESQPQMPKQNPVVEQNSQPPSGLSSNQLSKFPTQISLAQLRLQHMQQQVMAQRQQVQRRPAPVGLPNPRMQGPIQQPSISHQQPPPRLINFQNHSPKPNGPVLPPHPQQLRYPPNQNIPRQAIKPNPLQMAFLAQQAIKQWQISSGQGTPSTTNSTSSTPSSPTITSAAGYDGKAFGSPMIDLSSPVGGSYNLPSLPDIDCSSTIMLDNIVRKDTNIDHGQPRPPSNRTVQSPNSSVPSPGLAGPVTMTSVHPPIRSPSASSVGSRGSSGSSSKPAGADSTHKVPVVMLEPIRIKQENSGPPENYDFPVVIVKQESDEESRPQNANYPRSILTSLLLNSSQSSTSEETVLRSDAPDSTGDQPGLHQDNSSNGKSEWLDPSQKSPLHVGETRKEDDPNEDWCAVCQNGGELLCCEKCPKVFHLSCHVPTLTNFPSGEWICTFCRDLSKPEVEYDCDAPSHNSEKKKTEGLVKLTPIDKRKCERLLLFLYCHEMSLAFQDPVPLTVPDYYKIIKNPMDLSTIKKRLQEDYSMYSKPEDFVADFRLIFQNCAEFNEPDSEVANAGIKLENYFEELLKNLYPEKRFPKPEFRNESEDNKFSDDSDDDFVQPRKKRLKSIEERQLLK

Another assay has as its target T5, HIPK2HSF (Homo sapiens, UniProt Q9H2X6).
T5 construct: purchased in-house DSF kinase panel (SGC-style construct names; the trailing letter is the construct ID)

The next assay deals with T6, NEK7A (Homo sapiens, UniProt Q8TDX7).
T6 construct: purchased in-house DSF kinase panel (SGC-style construct names; the trailing letter is the construct ID)
T6 sequence (Q8TDX7 whole entry): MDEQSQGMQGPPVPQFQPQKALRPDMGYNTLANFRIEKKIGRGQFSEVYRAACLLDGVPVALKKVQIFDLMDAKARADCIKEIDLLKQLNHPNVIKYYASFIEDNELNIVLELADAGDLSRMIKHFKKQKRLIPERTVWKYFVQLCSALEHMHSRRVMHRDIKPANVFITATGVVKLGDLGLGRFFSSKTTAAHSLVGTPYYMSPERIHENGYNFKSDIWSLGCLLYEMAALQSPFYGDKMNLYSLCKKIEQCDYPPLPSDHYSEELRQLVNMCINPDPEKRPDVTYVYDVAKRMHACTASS

T5 sequence (Q9H2X6 199-527): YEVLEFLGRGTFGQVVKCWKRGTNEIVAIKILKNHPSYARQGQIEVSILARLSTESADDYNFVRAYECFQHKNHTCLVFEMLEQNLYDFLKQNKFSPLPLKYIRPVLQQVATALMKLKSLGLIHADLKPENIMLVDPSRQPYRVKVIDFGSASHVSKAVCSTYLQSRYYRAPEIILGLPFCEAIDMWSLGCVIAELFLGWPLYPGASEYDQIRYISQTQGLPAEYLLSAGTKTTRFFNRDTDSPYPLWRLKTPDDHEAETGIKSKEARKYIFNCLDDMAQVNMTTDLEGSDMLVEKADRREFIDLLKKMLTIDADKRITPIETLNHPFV

As for `O=C(NCc1ccccc1)Nc1ccc2cc1OCCOCCNc1ccn3ncc-2c3n1` [compound 16], the figures for the ΔTm at 10 µM on PHKG2A and at RIOK1A were 1.3 °C and 0.1 °C, respectively.

As to `O=C(NCc1ccccc1Cl)Nc1ccc2cc1OCCOCCNc1ccn3ncc-2c3n1` [compound 17], the ΔTm at 10 µM on PHKG2A was determined as 0.6 °C; on RIOK1A, 0.5 °C.

For the compound `O=C(NCc1cccc(Cl)c1)Nc1ccc2cc1OCCOCCNc1ccn3ncc-2c3n1` [compound 18], the ΔTm at 10 µM on PHKG2A amounted to 0.4 °C; at RIOK1A it was 1.4 °C.

`O=C(NCc1ccc(Cl)cc1)Nc1ccc2cc1OCCOCCNc1ccn3ncc-2c3n1` [compound 19]: the ΔTm at 10 µM was 1.2 °C on PHKG2A and 1.1 °C at RIOK1A.

Consider `O=C(NCc1ccc(Cl)cc1Cl)Nc1ccc2cc1OCCOCCNc1ccn3ncc-2c3n1` [compound 20], for which the ΔTm at 10 µM stood at 0.8 °C at PHKG2A and 1.9 °C on RIOK1A.

For `O=C(NCc1ccc(Cl)cc1F)Nc1ccc2cc1OCCOCCNc1ccn3ncc-2c3n1` [compound 21], the ΔTm at 10 µM was 0.9 °C at PHKG2A and -0.1 °C at RIOK1A.

In the case of `Cc1cc(Cl)ccc1CNC(=O)Nc1ccc2cc1OCCOCCNc1ccn3ncc-2c3n1` [compound 23], the results for the ΔTm at 10 µM on PHKG2A and on RIOK1A were 0.5 °C and 0.6 °C, respectively.

In the case of `Cc1cc(Br)ccc1CNC(=O)Nc1ccc2cc1OCCOCCNc1ccn3ncc-2c3n1` [compound 24], the ΔTm at 10 µM at MAP2K7A was found to be 0.3 °C; at TIF1A, 1 °C; at HIPK2HSF, 0.2 °C; at NEK7A, 1.6 °C.

Take `Cc1ccc(F)cc1CNC(=O)Nc1ccc2cc1OCCOCCNc1ccn3ncc-2c3n1` [compound 26]: the ΔTm at 10 µM on MAP2K7A was found to be 0.1 °C; on TIF1A, 0.4 °C; at HIPK2HSF it was 0.4 °C; on NEK7A, 0.9 °C.

On to `O=C(NCc1ccccc1C(F)(F)F)Nc1ccc2cc1OCCOCCNc1ccn3ncc-2c3n1` [compound 27], for which the ΔTm at 10 µM was 1 °C on MAP2K7A, 1.3 °C on TIF1A, 0.2 °C at HIPK2HSF and 2 °C at NEK7A.

As for `O=C(NCc1ccc(C(F)(F)F)cc1)Nc1ccc2cc1OCCOCCNc1ccn3ncc-2c3n1` [compound 28], the ΔTm at 10 µM on MAP2K7A stood at 1.1 °C; on TIF1A, 1.6 °C; on HIPK2HSF it was 0.6 °C; on NEK7A it was 2.3 °C.

As to `COc1ccccc1CNC(=O)Nc1ccc2cc1OCCOCCNc1ccn3ncc-2c3n1` [compound 29], the ΔTm at 10 µM at MAP2K7A came out at 0.1 °C; at TIF1A, 0.5 °C; at HIPK2HSF it was 0.5 °C; at NEK7A, 1.7 °C.

For the compound `COc1cccc(CNC(=O)Nc2ccc3cc2OCCOCCNc2ccn4ncc-3c4n2)c1` [compound 30], the ΔTm at 10 µM at MAP2K7A is 0.1 °C; at TIF1A, 0.3 °C; at HIPK2HSF, 0.4 °C; at NEK7A, 1 °C.

As to `COc1ccc(CNC(=O)Nc2ccc3cc2OCCOCCNc2ccn4ncc-3c4n2)cc1` [compound 31], the shift in melting temperature (ΔTm) at 10 µM came out at 0.5 °C on MAP2K7A, 0.2 °C on TIF1A, 0.5 °C on HIPK2HSF and 0.6 °C at NEK7A.

Regarding `COc1ccc(CNC(=O)Nc2ccc3cc2OCCOCCNc2ccn4ncc-3c4n2)cc1F` [compound 32], the ΔTm at 10 µM at MAP2K7A came out at 0.5 °C; at TIF1A it was 0.5 °C; at HIPK2HSF, 0.5 °C; on NEK7A it was 1.3 °C.

In the case of `COc1cc(CNC(=O)Nc2ccc3cc2OCCOCCNc2ccn4ncc-3c4n2)ccc1F` [compound 33], the thermal shift (ΔTm) at 10 µM on MAP2K7A was 0 °C; at TIF1A it was 0.6 °C; at HIPK2HSF, 0.5 °C; at NEK7A it was 1.4 °C.

Take `C[C@H](NC(=O)Nc1ccc2cc1OCCOCCNc1ccn3ncc-2c3n1)c1ccccc1` [compound 34]: the ΔTm at 10 µM was 0 °C at MAP2K7A, -0.1 °C on TIF1A, 0.4 °C at HIPK2HSF and 0.9 °C on NEK7A.

For the compound `CN1CCN(C(=O)Nc2ccc3cc2OCCOCCNc2ccn4ncc-3c4n2)CC1` [compound 35], the shift in melting temperature (ΔTm) at 10 µM at PHKG2A was -0.1 °C; at RIOK1A it was 1.2 °C.
